Laboratory results taken from PubChem BioAssay (NCI).
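Results reflect a 48-hour exposure of cells in 96-well plates to compound at five concentrations. The concentration for 50% growth inhibition is given as GI50. TGI marks complete inhibition of growth.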

Columns and labels:
Assay in all cases: NCI-60 cell line screen, 48 h
SF-295 CNS = tested on: SF-295 CNS
MCF7 breast = tested on: MCF7 breast
PC-3 prostate = tested on: PC-3 prostate
786-0 renal = tested on: 786-0 renal
RPMI-8226 leukemia = tested on: RPMI-8226 leukemia
LOX IMVI melanoma = tested on: LOX IMVI melanoma
DU-145 prostate = tested on: DU-145 prostate
SK-MEL-28 melanoma = tested on: SK-MEL-28 melanoma
ACHN renal = tested on: ACHN renal
SW-620 colon = tested on: SW-620 colon

| SMILES | TGI (SF-295 CNS) | TGI (MCF7 breast) | TGI (PC-3 prostate) | TGI (786-0 renal) | TGI (RPMI-8226 leukemia) | TGI (LOX IMVI melanoma) | TGI (DU-145 prostate) | TGI (SK-MEL-28 melanoma) | TGI (ACHN renal) | TGI (SW-620 colon) | GI50 (SF-295 CNS) | GI50 (MCF7 breast) | GI50 (PC-3 prostate) | GI50 (RPMI-8226 leukemia) | GI50 (LOX IMVI melanoma) | GI50 (DU-145 prostate) | GI50 (SK-MEL-28 melanoma) | GI50 (ACHN renal) | GI50 (SW-620 colon) |
| --- | --- | --- | --- | --- | --- | --- | --- | --- | --- | --- | --- | --- | --- | --- | --- | --- | --- | --- | --- |
| CC(C)C(Nc1ncnc2nc[nH]c12)C(=O)O (stereo not given) | > 100 µM | > 100 µM | > 100 µM | > 100 µM | > 100 µM | > 100 µM | > 100 µM | > 100 µM | > 100 µM | > 100 µM |  |  |  |  |  |  |  |  |  |
| C/C=C1/CN2CCC34c5ccccc5N(C)C23C2CC1C4(C(=O)OC)C(OC(C)=O)O2 (stereo not given) | > 100 µM | > 100 µM | > 100 µM | > 100 µM | > 100 µM | > 100 µM | > 100 µM | > 100 µM | > 100 µM | > 100 µM |  |  |  |  |  |  |  |  |  |
| CCOC(=O)c1c(NS(=O)(=O)c2ccc(C)cc2)sc2c1CCCC2 | > 100 µM | > 100 µM | > 100 µM | > 100 µM | 45.9 µM |  | > 100 µM |  | > 100 µM |  |  |  |  |  |  |  |  |  |  |
| COC1=C[C@]2(CCC(=O)O2)[C@@H]2Cc3ccccc3[C@H](O)[C@@H]2C1=O | > 100 µM | > 100 µM | > 100 µM | > 100 µM | 38.5 µM | 87.3 µM |  | > 100 µM | > 100 µM | 88.8 µM |  |  |  |  |  |  |  |  |  |
| CC1(C)OC[C@H](C(=N)OCc2ccccc2)O1 | > 100 µM |  |  |  | > 100 µM |  |  | > 100 µM | > 100 µM | > 100 µM |  |  |  |  |  |  |  |  |  |
| C[C@@]1(CCCCCCCCCCc2ccccc2)C[C@@]2(C)OC(=O)C[C@H]2OO1 | 4.97 µM | 35 µM | 4.41 µM | 32.9 µM | 5.36 µM | 34.6 µM | > 4.64 µM | 4.2 µM | 4.88 µM | 40.7 µM |  |  |  |  |  |  |  |  |  |
| Cc1cc2cc3cc(C)c(N)cc3nc2cc1N | 1.41 µM | 2.71 µM | 6.84 µM | 1.75 µM | 1.31 µM | 2.11 µM | 1.87 µM | 2.94 µM | 1.6 µM | 1.6 µM |  |  |  |  |  |  |  |  |  |
| CN(C)C(=O)Oc1c(Br)cc(Br)cc1C(=O)OCc1ccccc1 | 55.7 µM | > 70.3 µM |  |  | 52.4 µM | 60.2 µM |  | 97.3 µM |  | > 100 µM |  |  |  |  |  |  |  |  |  |
| CCc1cc(C)cc2[n+]1CC=C2 | > 100 µM |  |  | > 100 µM |  | > 100 µM |  | > 100 µM | 35.4 µM | > 100 µM |  |  |  |  |  |  |  |  |  |
| CCC(C)(C)c1cc(O)c(C(C)(C)CC)cc1O | 5.18 µM | 11.6 µM | 13.2 µM |  | 9.09 µM | 4.62 µM | 17.1 µM | 10.9 µM | 16.1 µM | 6.89 µM | 2.25 µM | 2.46 µM | 3.43 µM | 2.41 µM | 2.1 µM | 4.39 µM | 2.82 µM | 4.62 µM | 2.35 µM |
| CCOC(=O)c1[nH]cc(C)c1-c1cccn1-c1ccc(Cl)cc1[N+](=O)[O-] | 83 µM | > 100 µM | 64.9 µM | 36.1 µM |  | 31.3 µM | > 100 µM | 55.7 µM | > 100 µM | > 100 µM |  |  |  |  |  |  |  |  |  |
